Results reported in US20220175768A1, “FGFR TYROSINE KINASE INHIBITORS FOR THE TREATMENT OF UROTHELIAL CARCINOMA” (Janssen Pharmaceutica NV, priority 2019, published 2022).
Like-named read-outs stand apart in the source and are kept apart here.

[1] = 8 mg continuous, selected regimen 3 (n = 99)
[2] = 8 mg continuous, selected regimen 3 (n = 99), Table 14

Procedure: Study treatment was administered on 28-day cycles. Prior to interim analysis 1, there were 2 treatment regimens. Patients were randomized 1:1 to 28-day cycles to the following 2 regimens until a regimen was selected for further study: Regimen 1 (10 mg once daily intermittent (7 days on/7 days); Regimen 2 (6 mg once daily continuous). Randomization was stratified according to performance status (0 to 1 vs. 2), hemoglobin value (<10 vs. ≥10 g per dl), FGFR alteration type (mutation vs. fusion), prior treatment status (chemotherapy-resistant vs. chemotherapy naïve), and disease distribution (presence or absence of visceral [liver, lung, bone] metastases). Starting dose selection was based on phase 1 efficacy and tolerability.
Thus, after interim analysis, this became a single-arm study. […] Treatment continued until disease progression or unacceptable adverse event(s) per investigator.
All objective responses required confirmation by an additional investigator assessment within 4 to 6 weeks of first assessment. Disease evaluations for regimen 3 were also performed by an independent radiographic review committee. […] Safety was evaluated based on clinical laboratory tests, physical exams, electrocardiograms, and ophthalmology examinations. Adverse events and abnormalities were assessed by investigator and graded per NCI CTCAE v.4.0
Prophylactic measures were taken to minimize risk of common adverse events related to FGFR inhibition. To reduce risk of hyperphosphatemia, a low-phosphate diet was recommended for all patients (600 to 800 mg of dietary phosphate intake per day). To reduce the risk of skin effects, the application of alcohol-free emollient moisturizing cream and avoidance of unnecessary exposure to sunlight, soap, perfumed products, and hot baths was recommended. Patients were asked to keep their fingers and toes clean and nails trimmed to reduce risk of nail effects.
Additional ophthalmology examinations were performed if clinically indicated.

Q: Which “Patients with Hyperphosphatemia, Grade ≥3” value [1] does the source give for `COc1cc(OC)cc(N(CCNC(C)C)c2ccc3ncc(-c4cnn(C)c4)nc3c2)c1` [erdafitinib, N-(3,5-dimethoxy-phenyl)-N′-(1-methylethyl)-N-[3-(1-methyl-1H-pyrazol-4-yl)quinoxalin-6-yl]ethane-1,2-diamine] here?
A: 2 (2) no. (%)

Q: And the “Patients with Hypomagnesemia, Any grade” value [1]?
A: 10 (10) no. (%)

Q: And the “Patients with Hypomagnesemia, Grade 1” value [1]?
A: 9 (9) no. (%)

Q: And the “Patients with Hypomagnesemia, Grade 2” value [1]?
A: 1 (1) no. (%)

Q: And the “Patients with Hypomagnesemia, Grade ≥3” value [1]?
A: 0 no. (%)

Q: What about the “Patients with Hyponatremia, Any grade” value [1] of the same compound?
A: 12 (12) no. (%)

Q: What about the “Patients with Hyponatremia, Grade 1” value [1] of the same compound?
A: 1 (1) no. (%)

Q: And the “Patients with Hyponatremia, Grade 2” value [1]?
A: 0 no. (%)

Q: What about the “Patients with Hyponatremia, Grade ≥3” value [1] of the same compound?
A: 11 (11) no. (%)

Q: And the “Patients with Insomnia, Any grade” value [1]?
A: 7 (7) no. (%)

Q: And the “Patients with Insomnia, Grade 1” value [1]?
A: 4 (4) no. (%)

Q: And the “Patients with Insomnia, Grade 2” value [1]?
A: 3 (3) no. (%)

Q: And the “Patients with Insomnia, Grade ≥3” value [1]?
A: 0 no. (%)

Q: And the “Patients with Lacrimation increased, Any grade” value [1]?
A: 11 (11) no. (%)

Q: And the “Patients with Lacrimation increased, Grade 1” value [1]?
A: 8 (8) no. (%)

Q: What about the “Patients with Lacrimation increased, Grade 2” value [1] of the same compound?
A: 3 (3) no. (%)

Q: And the “Patients with Lacrimation increased, Grade ≥3” value [1]?
A: 0 no. (%)

Q: What about the “Patients with Nail dystrophy, Any grade” value [1] of the same compound?
A: 16 (16) no. (%)

Q: What about the “Patients with Nail dystrophy, Grade 1” value [1] of the same compound?
A: 5 (5) no. (%)

Q: What about the “Patients with Nail dystrophy, Grade 2” value [1] of the same compound?
A: 5 (5) no. (%)

Q: And the “Patients with Nail dystrophy, Grade ≥3” value [1]?
A: 6 (6) no. (%)

Q: And the “Patients with Nausea, Any grade” value [1]?
A: 20 (20) no. (%)

Q: And the “Patients with Nausea, Grade 1” value [1]?
A: 13 (13) no. (%)

Q: What about the “Patients with Nausea, Grade 2” value [1] of the same compound?
A: 6 (6) no. (%)

Q: And the “Patients with Nausea, Grade ≥3” value [1]?
A: 1 (1) no. (%)

Q: What about the “Patients with Onycholysis, Any grade” value [1] of the same compound?
A: 18 (18) no. (%)

Q: What about the “Patients with Onycholysis, Grade 1” value [1] of the same compound?
A: 6 (6) no. (%)

Q: What about the “Patients with Onycholysis, Grade 2” value [1] of the same compound?
A: 10 (10) no. (%)

Q: And the “Patients with Onycholysis, Grade ≥3” value [1]?
A: 2 (2) no. (%)

Q: What about the “Patients with Onychomadesis, Any grade” value [1] of the same compound?
A: 7 (7) no. (%)

Q: What about the “Patients with Onychomadesis, Grade 1” value [1] of the same compound?
A: 2 (2) no. (%)

Q: What about the “Patients with Onychomadesis, Grade 2” value [1] of the same compound?
A: 5 (5) no. (%)

Q: And the “Patients with Onychomadesis, Grade ≥3” value [1]?
A: 0 no. (%)

Q: And the “Patients with Oropharyngeal pain, Any grade” value [1]?
A: 10 (10) no. (%)

Q: What about the “Patients with Oropharyngeal pain, Grade 1” value [1] of the same compound?
A: 8 (8) no. (%)

Q: And the “Patients with Oropharyngeal pain, Grade 2” value [1]?
A: 1 (1) no. (%)

Q: And the “Patients with Oropharyngeal pain, Grade ≥3” value [1]?
A: 1 (1) no. (%)

Q: And the “Patients with Pain in extremity, Any grade” value [1]?
A: 12 (12) no. (%)

Q: What about the “Patients with Pain in extremity, Grade 1” value [1] of the same compound?
A: 10 (10) no. (%)

Q: And the “Patients with Pain in extremity, Grade 2” value [1]?
A: 2 (2) no. (%)

Q: What about the “Patients with Pain in extremity, Grade ≥3” value [1] of the same compound?
A: 0 no. (%)

Q: What about the “Patients with Paronychia, Any grade” value [1] of the same compound?
A: 17 (17) no. (%)

Q: And the “Patients with Paronychia, Grade 1” value [1]?
A: 3 (3) no. (%)

Q: And the “Patients with Paronychia, Grade 2” value [1]?
A: 11 (11) no. (%)

Q: And the “Patients with Paronychia, Grade ≥3” value [1]?
A: 3 (3) no. (%)

Q: What about the “Patients with Peripheral edema, Any grade” value [1] of the same compound?
A: 9 (9) no. (%)

Q: What about the “Patients with Peripheral edema, Grade 1” value [1] of the same compound?
A: 5 (5) no. (%)

Q: And the “Patients with Peripheral edema, Grade 2” value [1]?
A: 3 (3) no. (%)

Q: And the “Patients with Peripheral edema, Grade ≥3” value [1]?
A: 1 (1) no. (%)

Q: And the “Patients with Pyrexia, Any grade” value [1]?
A: 13 (13) no. (%)

Q: And the “Patients with Pyrexia, Grade 1” value [1]?
A: 8 (8) no. (%)

Q: And the “Patients with Pyrexia, Grade 2” value [1]?
A: 5 (5) no. (%)

Q: What about the “Patients with Pyrexia, Grade ≥3” value [1] of the same compound?
A: 0 no. (%)

Q: What about the “Patients with Retinal detachment, Any grade” value [1] of the same compound?
A: 5 (5) no. (%)

Q: What about the “Patients with Retinal detachment, Grade 1” value [1] of the same compound?
A: 3 (3) no. (%)

Q: And the “Patients with Retinal detachment, Grade 2” value [1]?
A: 2 (2) no. (%)

Q: What about the “Patients with Retinal detachment, Grade ≥3” value [1] of the same compound?
A: 0 no. (%)

Q: What about the “Patients with Stomatitis, Any grade” value [1] of the same compound?
A: 57 (58) no. (%)

Q: What about the “Patients with Stomatitis, Grade 1” value [1] of the same compound?
A: 21 (21) no. (%)

Q: What about the “Patients with Stomatitis, Grade 2” value [1] of the same compound?
A: 26 (26) no. (%)

Q: What about the “Patients with Stomatitis, Grade ≥3” value [1] of the same compound?
A: 10 (10) no. (%)

Q: And the “Patients with Urinary tract infection, Any grade” value [1]?
A: 16 (16) no. (%)

Q: What about the “Patients with Urinary tract infection, Grade 1” value [1] of the same compound?
A: 0 no. (%)

Q: And the “Patients with Urinary tract infection, Grade 2” value [1]?
A: 11 (11) no. (%)

Q: What about the “Patients with Urinary tract infection, Grade ≥3” value [1] of the same compound?
A: 5 (5) no. (%)

Q: And the “Patients with Vision blurred, Any grade” value [1]?
A: 17 (17) no. (%)

Q: What about the “Patients with Vision blurred, Grade 1” value [1] of the same compound?
A: 10 (10) no. (%)

Q: What about the “Patients with Vision blurred, Grade 2” value [1] of the same compound?
A: 7 (7) no. (%)

Q: And the “Patients with Vision blurred, Grade ≥3” value [1]?
A: 0 no. (%)

Q: And the “Patients with Vomiting, Any grade” value [1]?
A: 13 (13) no. (%)

Q: What about the “Patients with Vomiting, Grade 1” value [1] of the same compound?
A: 10 (10) no. (%)

Q: What about the “Patients with Vomiting, Grade 2” value [1] of the same compound?
A: 1 (1) no. (%)

Q: What about the “Patients with Vomiting, Grade ≥3” value [1] of the same compound?
A: 2 (2) no. (%)

Q: What about the “Patients with Weight decreased, Any grade” value [1] of the same compound?
A: 15 (15) no. (%)

Q: And the “Patients with Weight decreased, Grade 1” value [1]?
A: 7 (7) no. (%)

Q: What about the “Patients with Weight decreased, Grade 2” value [1] of the same compound?
A: 8 (8) no. (%)

Q: What about the “Patients with Weight decreased, Grade ≥3” value [1] of the same compound?
A: 0 no. (%)

Q: What about the “Patients with Alopecia, Grade ≥3” value [2] of the same compound?
A: 0 no.

Q: And the “Patients with Decreased appetite, Grade ≥3” value [2]?
A: 0 no.

Q: What about the “Patients with Dry mouth, Grade ≥3” value [2] of the same compound?
A: 0 no.

Q: And the “Patients with Dry skin, Grade ≥3” value [2]?
A: 0 no.

Q: What about the “Patients with Urinary tract infection, Grade 1” value [2] of the same compound?
A: 0 no.

Q: And the “Patients with Vision blurred, Grade ≥3” value [2]?
A: 0 no.

Q: What about the “Patients with some type of eye disorder, regardless of relation to treatment” value (8 mg per day continuous) of the same compound?
A: 63%

Q: And the “Patients with grade ≥3 treatment-emergent adverse events” value (8 mg per day continuous group uptitrated to 9 mg per day)?
A: 68%

Q: What about the “Patients with Abdominal pain, Any grade” value (10 mg intermittent, regimen 1 (n = 33)) of the same compound?
A: 5 (15) no. (%)
